Patent US20240132511A1, “TREATMENTS OF PRADER-WILLI SYNDROME” (Neuren Pharmaceuticals Limited, priority 2021, published 2024)

Experiments:
[1] = test system: subjects with Prader-Willi syndrome; assay: Proposed randomized, double-blind placebo controlled study in subjects with Prader-Willi syndrome; type: in vivo, human
Source text: For the proposed study thirty subjects with Prader-Willi syndrome are recruited. Subjects are females and males aged between 4 and 20 years (Mean=12.1 SD=4.4). All subjects have confirmed loss of function in the 15q11-q13 region on the paternal copy of chromosome 15 and also meet diagnostic criteria for Prader-Willi syndrome based on assessment of behavioral and somatic symptoms. The majority of subjects (72%) are being treated with rhGH at screening. Subjects are instructed that concomitant medications are to be stable for at least six weeks prior to study.
The study is a randomized, double-blind placebo controlled parallel study with subjects randomized 1:1:1 to placebo, 6 mg/kg or 12 mg/kg of Cyclo-L-Glycyl-L-2-Allylproline is to be administered as an oral liquid twice daily for eighty-four days.
Subjects are tested at baseline using the following instruments: the Hyperphagia Questionnaire for Clinical Trials (HQ-CT), the Clinical Global Impression of Severity (CGI-S), the Caregiver Global Impression of Change (CaGI-I), the Aberrant Behavior Checklist (ABC) and ABC Subscales, the Social Responsiveness Scale, the Repetitive Behavior Scale-Revised (RBS-R), the PWS Anxiety and Distress Questionnaire (PADQ) and the Children's Yale-Brown Obsessive-Compulsive Scale (CY-BOCS). In addition, the following measurements are made at baseline: Body Fat Assessment (BFA), fasting blood glucose, blood lipids (HDL, LDL, VLDL, triglycerides), serum IGF-1 (total, bound to IGF-1 Binding Protein-3 [IGFBP-3]), fasting insulin and the Homeostatic Model Assessment for Insulin Resistance (HOMA-IR).
The effect of treatment with Cyclo-L-Glycyl-L-2-Allylproline is analyzed by conducting a repeated analysis of covariance (ANCOVA) on change from baseline scores for each of the measures plus the Clinical Global Impression of Change (CGI-I). Safety is assessed using caregiver reports of adverse events, a panel of standard laboratory tests and electrocardiograms (ECG).

[2] = Delivery of cG-2-AllylP into CSF, blood and brain after single oral gavage dose; type: in vivo, male Sprague Dawley rats; conditions: for Mean Test Article Exposure, Blood / Mean Test Article Exposure, CSF / Mean Test Article Exposure, Brain: rat
Procedure: In an in vivo study, male Sprague Dawley rats (aged 14 weeks) received a single dose of cG-2-AllylP, either 100 mg/kg or 200 mg/kg by oral gavage. Cerebrospinal fluid (CSF) and whole blood were collected at 1.5 and 4 hours post-dose, and brain tissue was collected at 4 hours post-dose to evaluate cG-2-AllylP exposure.

Magel2-null mice [3] = assay: Circulating IGF-1 level in Magel2-null mice; type: in vivo, mouse; design: key: **** = p < 0.0001; ns = not significant
Procedure: (§1) In vivo experiments were conducted in C57BL/6-Magel2tm1Stw/J (Magel2-null) mice at age P60 and their wild-type littermates during the light phase (littermates that were wild-type for Magel2 were used as controls). Ten mice per treatment group were used for studies 1 and 2, and six mice per group for study 3. In study 1: C57BL/6-Magel2tm1Stw/J (Magel2-null) mice were assessed on behavioral assays. Study 2 tested the efficacy of cG-2-AllylP in treating obesity and insulin levels in Magel2-null mice. Study 3 tested the IGF-1 level in Magel2-null mice. Because human beings have the same genetic abnormality, studies of Magel2-null mice are reasonably predictive of effects of compounds of Formulas I, II, III and IV in human beings with Prader-Willi Syndrome.
(§2) Testing was performed during the light phase of the circadian cycle, with the order of testing being determined by the principle of conducting the most stressful tests last. Assays were designed to reproduce and expand on the original behavioral characterization of Magel2-null mice. Magel2-null and wild-type control mice were dosed once daily for 6 weeks prior to testing and tested 30 minutes following a dose of cG-2-AllylP (NNZ2591). Study groups and the treatment matrix are described in Table 2 below.
Prader-Willi Syndrome may be associated with altered IGF-1 levels in humans.

Magel2-null mice [4] = assay: Novel Object Recognition (NOR); type: in vivo, mouse; design: key: **** = p < 0.0001; ns = not significant
Source text: The mouse locus 7qB4/B5 (syntenic with the Prader-Willi region at chromosome position 15q11-q13 in humans) encompasses the cluster of paternally-expressed imprinted genes Magel2, Ndn, Mkrn3, and Peg12. As maternal imprinting silences the Magel2 allele, only the paternally inherited Magel2 allele is expressed. Heterozygous females were bred with wild-type males (or C57BL/6J inbred males) to maintain the line; as the resulting offspring will have no abnormal phenotype. To obtain “Magel2-null” offspring (both maternal and paternal Magel2 alleles are non-functional), wild-type females are bred with heterozygous males; allowing maternal transmission of the imprinted/silenced wild-type allele and paternal transmission of the Magel2-lacZ (null) allele. Magel2-null mice have disrupted circadian rhythm and metabolism, total activity, food consumption, weight before weaning, and fertility in both sexes, as well as increased adiposity after weaning and altered behavior. Magel2-null mice on this C57BL/6J genetic background recapitulate Prader-Willi syndrome. Because the genetic mutation in the Magel2-null animals is the same as the mutation in human beings, studies in Magel2-null mice are reasonably predictive of effects of compounds in human beings.
as §1, §2
The NOR test is used to evaluate cognition, based on the tendency for mice to spend more time exploring a novel object that a familiar object. Magel2-null mice display a lack of discrimination between known and novel objects.

Magel2-null mice [5] = assay: Fat mass in female Magel2-null mice; type: in vivo, mouse; design: key: **** = p < 0.0001; ns = not significant
Procedure: as §1, §2
Prader-Willi Syndrome is associated with metabolic and hormonal abnormalities in humans. Magel2-null mice recapitulate some of the metabolic and hormonal aspects of humans with Prader-Willi Syndrome. Experiments were conducted to determine if cG-2-AllylP could have a normalizing effect in metabolic and hormonal aspects.
Because female Magel2-null mice present a significant increase in body weight compared with their littermate wild-type controls, female Magel2-null mice were used for this study.

[6] = 6 mg/kg or 12 mg/kg oral liquid twice daily for eighty-four days
[7] = 6 mg/kg or 12 mg/kg oral liquid twice daily for eighty-four days vs placebo
[8] = single oral dose 100 mg/kg, 1.5 h post-dose
[9] = single oral dose 100 mg/kg, 4 h post-dose
[10] = single oral dose 200 mg/kg, 1.5 h post-dose
[11] = single oral dose 200 mg/kg, 4 h post-dose
[12] = Magel2-null + Vehicle vs. Magel2-null + NNZ2591 (100 mg/kg)
[13] = WT + NNZ2591 (200 mg/kg) vs. Magel2-null + NNZ2591 (200 mg/kg)
[14] = WT + Vehicle vs. WT + NNZ2591 (100 mg/kg)
[15] = WT + Vehicle vs. WT + NNZ2591 (200 mg/kg)
[16] = Magel2-null + Vehicle vs. Magel2-null + NNZ2591 (200 mg/kg)

Concentration in blood versus brain tissue ([2]; 4 hours post-dose): approximately equivalent
Dose dependence of concentration ([2]; blood and CSF at 1.5 hours, blood, CSF and brain at 4 hours, single oral dose 100 vs 200 mg/kg): approximately proportional increase
Mean Test Article Exposure, Blood [2, 8]: 58.5 µg/mL
Mean Test Article Exposure, CSF [2, 8]: 40.4 µg/mL
Mean Test Article Exposure, Blood [2, 9]: 15.6 µg/mL
Mean Test Article Exposure, Brain [2, 9]: 22.6 µg/mL
Mean Test Article Exposure, CSF [2, 9]: 11.0 µg/mL
Mean Test Article Exposure, Blood [2, 10]: 116.0 µg/mL
Mean Test Article Exposure, CSF [2, 10]: 82.2 µg/mL
Mean Test Article Exposure, Blood [2, 11]: 34.2 µg/mL
Mean Test Article Exposure, Brain [2, 11]: 37.0 µg/mL
Mean Test Article Exposure, CSF [2, 11]: 24.7 µg/mL
melting point: 106 to 109 °C
SMILES: C=CCC12CCCN1C(=O)CNC2=O [cG-2-AllylP, (8aS)-Allyl-hexahydropyrrolo[1,2-a]pyrazine-1,4-dione]
Duration and severity of adverse events [1, 6]: short duration and mild severity
Serious Adverse Events [1, 6]: No Serious Adverse Events are reported
Incidence of treatment-emergent adverse events [1, 7]: no difference in the incidence of treatment-emergent adverse events between placebo and either dose
Laboratory tests and ECG measures [1, 7]: no treatment-related pattern of abnormalities on laboratory tests or ECG measures
IGF-1 level, Sidak's multiple comparisons test, Summary (Magel2-null mice [3]; [12]): **** (**** = p < 0.0001)
IGF-1 level, Sidak's multiple comparisons test, Summary (Magel2-null mice [3]; [13]): ns
IGF-1 level, Sidak's multiple comparisons test, Summary (Magel2-null mice [3]; [14]): ns
IGF-1 level, Sidak's multiple comparisons test, Summary (Magel2-null mice [3]; [15]): ns
Novel object recognition, Sidak's multiple comparisons test, Summary (Magel2-null mice [4]; Magel2-null + NNZ2591 (100 mg/kg) vs. Magel2-null + NNZ2591 (200 mg/kg)): ns
Novel object recognition, Sidak's multiple comparisons test, Summary (Magel2-null mice [4]; [16]): **** (**** = p < 0.0001)
Novel object recognition, Sidak's multiple comparisons test, Summary (Magel2-null mice [4]; WT + NNZ2591 (100 mg/kg) vs. Magel2-null + NNZ2591 (100 mg/kg)): ns
Novel object recognition, Sidak's multiple comparisons test, Summary (Magel2-null mice [4]; [13]): ns
Novel object recognition, Sidak's multiple comparisons test, Summary (Magel2-null mice [4]; [14]): ns
Novel object recognition, Sidak's multiple comparisons test, Summary (Magel2-null mice [4]; [15]): ns
Effect on fat mass, Sidak's multiple comparisons test, Summary (Magel2-null mice [5]; [12]): ns
Effect on fat mass, Sidak's multiple comparisons test, Summary (Magel2-null mice [5]; [16]): **** (**** = p < 0.0001)
Effect on fat mass, Sidak's multiple comparisons test, Summary (Magel2-null mice [5]; [13]): ns
Effect on fat mass, Sidak's multiple comparisons test, Summary (Magel2-null mice [5]; [14]): ns
Effect on fat mass, Sidak's multiple comparisons test, Summary (Magel2-null mice [5]; [15]): ns
